Measurements reported in US20250296959A1, “B7-H3 TARGETING PEPTIDES AND CONSTRUCTS THEREOF” (Mariana Oncology Inc., priority 2024, published 2025).
Read-outs that look alike come from different tables or passages of the source. Starred links: 1 amine or outer side, 2 acyl side, 3 side chain; linkers in the order of their positions; H or OH if unused. Positions of bridges follow the written chain, without caps; N, C: chain ends. Non-standard residues stand in square brackets, D forms with d. Residues, ends and D or L forms follow the SMILES beside them. Groups on a side chain read outwards from the residue. *: point of attachment. X2 = O=C(O)CN1CCN(CC(=O)O)CCN(CC(=O)NCCOCCOCCOCCOCC(=O)*)CCN(CC(=O)O)CC1; Ala(piperidin-4-yl) = O=C([C@H](CC1CCN([*:3])CC1)N[*:1])[*:2]; Phe(3-CH2NH2) = O=C([C@H](Cc1cccc(CN[*:3])c1)N[*:1])[*:2]; DOTA = O=C(O)CN1CCN(CC(=O)O)CCN(CC(=O)*)CCN(CC(=O)O)CC1; Trp(5-F) = N[C@@H](Cc1c[nH]c2ccc(F)cc12)C(=O)O; 1Nal = N[C@@H](Cc1cccc2ccccc12)C(=O)O; Ala(4-THP) = N[C@@H](CC1CCOCC1)C(=O)O; Val(3-OH) = CC(C)(O)[C@H](N)C(=O)O; 4Pal = N[C@@H](Cc1ccncc1)C(=O)O; Chg = N[C@H](C(=O)O)C1CCCCC1; PEG4 = NCCOCCOCCOCCOCCC(=O)O; Tle = CC(C)(C)[C@H](N)C(=O)O; hLeu = CC(C)CC[C@H](N)C(=O)O; Sar = CNCC(=O)O

Legend:
Calu-6 cell line [1] = assay: Cell associated (bound) fraction of [177Lu]Lu-labeled peptide in Calu-6 cells; format: cell-based, Human; details: 1 hour, 37° C.
In short: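 Detached B7-H3-expressing human lung cancer cells at 5 million/mL were exposed for 1 hour at 37 °C to 0.8 μCi of the 177Lu-labelled peptide, which was formulated in 1% PBSA after labelling at 80 °C, pH ~5. Supernatant and two cold washes counted as unbound, and resuspended cells gamma-counted as the cell-associated fraction.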

Calu-6 cell line [2] = assay: Net internalization of [177Lu]Lu-labeled peptide in Calu-6 cells; format: cell-based, Human; details: 1 hour, 37° C., glycine pH 2.5 acid wash
In short: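 Calu-6 cells, human non-engineered lung cancer expressing B7-H3, resuspended in 1% PBSA at 5 million cells/mL and incubated with the 177Lu-labeled conjugate (labeled at 80 °C, pH ~5, RP-HPLC checked). Gamma counting of the bound fraction, then of the pellet after two glycine pH 2.5 acid strips and NaOH lysis, gives internalized activity.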

human 4lg B7-H3 = molecular target: T1, human 4lg B7-H3 (Homo sapiens, UniProt Q5ZPR3); assay: Affinity determination by surface plasmon resonance (SPR) to 4Ig B7-H3; details: 4Ig B7-H3
T1 sequence (Q5ZPR3 29-534): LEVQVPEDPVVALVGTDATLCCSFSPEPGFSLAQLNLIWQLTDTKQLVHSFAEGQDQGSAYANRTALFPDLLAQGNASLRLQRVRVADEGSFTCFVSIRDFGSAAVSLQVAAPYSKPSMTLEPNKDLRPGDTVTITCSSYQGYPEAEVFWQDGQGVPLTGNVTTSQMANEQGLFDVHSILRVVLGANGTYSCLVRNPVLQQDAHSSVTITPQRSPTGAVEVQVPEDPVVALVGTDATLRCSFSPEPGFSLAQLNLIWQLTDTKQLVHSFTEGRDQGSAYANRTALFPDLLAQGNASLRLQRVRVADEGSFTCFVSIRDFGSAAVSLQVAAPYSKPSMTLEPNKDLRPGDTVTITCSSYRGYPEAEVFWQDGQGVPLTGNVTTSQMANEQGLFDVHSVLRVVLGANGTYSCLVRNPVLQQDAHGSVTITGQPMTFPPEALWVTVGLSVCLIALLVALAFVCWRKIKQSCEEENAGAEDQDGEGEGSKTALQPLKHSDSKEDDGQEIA

[3] = read-out: SPR KD—25° C., 25° C. flow cell temperature
[4] = SPR KD—25° C., 25° C. flow cell temperature
[5] = read-out: SPR KD—37° C., 37° C. flow cell temperature

## CC(=O)N[C@@H](CCC(C)C)C(=O)N[C@@H](Cc1ccc(O)cc1)C(=O)N[C@H]1CSSC[C@@H](C(=O)N[C@@H](Cc2c[nH]c3ccc(F)cc23)C(=O)N[C@@H](Cc2ccccc2)C(=O)N[C@H](C(=O)N[C@H](CCCCNC(=O)CN2CCN(CC(=O)O)CCN(CC(=O)O)CCN(CC(=O)O)CC2)C(N)=O)[C@@H](C)O)NC(=O)[C@H](Cc2ccc(O)cc2)NC(=O)[C@H](C2CCCCC2)NC(=O)[C@H](CC(=O)O)NC(=O)[C@H](Cc2ccncc2)NC(=O)[C@H](CCCCN)NC(=O)CNC(=O)[C@H](C(C)C)NC1=O [compound 190, Ac-hLeu-Y-C-V-G-K-4PyA-D-ChG-Y-C-5FW-F-Thr-dLys(DOTA)-CONH2] (Ac-[hLeu]YCVGK[4Pal]D[Chg]YC[Trp(5-F)]FT[dK](DOTA)-NH2; disulfide 3-11)
Calu-6 cell line [1]
  % cell associated fraction: C (%>50)
Calu-6 cell line [2]
  % net internalization: B (25<%≤50)
Human 4lg B7-H3; [3]
  Kd: < 1 nM

## CC(=O)N[C@@H](CCC(C)C)C(=O)N[C@@H](Cc1ccc(O)cc1)C(=O)N[C@H]1CSSC[C@@H](C(=O)N[C@@H](Cc2cccc3ccccc23)C(=O)N[C@@H](Cc2ccccc2)C(=O)N[C@H](C(=O)N[C@H](CCCCNC(=O)CN2CCN(CC(=O)O)CCN(CC(=O)O)CCN(CC(=O)O)CC2)C(=O)O)C(C)(C)O)NC(=O)[C@H](Cc2ccc(O)cc2)NC(=O)[C@H](C(C)C)NC(=O)[C@H](CC(=O)O)NC(=O)[C@H](CC2CCOCC2)NC(=O)[C@H](CC2CCNCC2)NC(=O)CNC(=O)[C@H](C(C)(C)C)NC1=O [compound 436, Ac-hLeu-Y-C-Tbg-G-PipAla-ThpA-D-V-Y-C-1Nal-F-hydroxyVal-dLys(DOTA)-COOH] (Ac-[hLeu]YC[Tle]G[Ala(piperidin-4-yl)][Ala(4-THP)]DVYC[1Nal]F[Val(3-OH)][dK](DOTA)-OH; disulfide 3-11)
Calu-6 cell line [1]
  % cell associated fraction: B (25<%≤50)
Calu-6 cell line [2]
  % net internalization: A (%≤25)
Human 4lg B7-H3; SPR KD—37° C., 37° C. flow cell temperature
  Kd: < 1 nM

## CC(=O)N[C@@H](CCC(C)C)C(=O)N[C@@H](Cc1ccc(O)cc1)C(=O)N[C@H]1CSSC[C@@H](C(=O)N[C@@H](Cc2cccc3ccccc23)C(=O)N[C@@H](Cc2ccccc2)C(=O)N2CCC[C@H]2C(N)=O)NC(=O)[C@H](Cc2ccc(O)cc2)NC(=O)[C@H](C(C)C)NC(=O)[C@H](CC(=O)O)NC(=O)[C@H](Cc2ccncc2)NC(=O)[C@H](CCCCNC(=O)COCCOCCOCCOCCNC(=O)CN2CCN(CC(=O)O)CCN(CC(=O)O)CCN(CC(=O)O)CC2)NC(=O)CNC(=O)[C@H](C(C)(C)C)NC1=O [compound 256, Ac-hLeu-Y-C-Tbg-G-Lys(PEG4-DOTA)-4PyA-D-V-Y-C-1Nal-F-Pro-CONH2] (Ac-[hLeu]YC[Tle]GK(X2)[4Pal]DVYC[1Nal]FP-NH2; disulfide 3-11)
Calu-6 cell line [1]
  % cell associated fraction: A (%≤25)
Calu-6 cell line [2]
  % net internalization: A (%≤25)
Human 4lg B7-H3; [4]
  Kd: 1 to 10 nM

## CC(=O)N[C@@H](CCC(C)C)C(=O)N[C@@H](Cc1ccc(O)cc1)C(=O)N[C@H]1CSSC[C@@H](C(=O)N[C@@H](Cc2c[nH]c3ccc(F)cc23)C(=O)N[C@@H](Cc2ccccc2)C(=O)N[C@H](C(N)=O)C(C)(C)O)NC(=O)[C@H](Cc2ccc(O)cc2)NC(=O)[C@H](C(C)C)NC(=O)[C@H](CC(=O)O)NC(=O)[C@H](CC2CCOCC2)NC(=O)[C@H](CCCCNC(=O)CN2CCN(CC(=O)O)CCN(CC(=O)O)CCN(CC(=O)O)CC2)NC(=O)CNC(=O)[C@H](C(C)(C)C)NC1=O [compound 338, Ac-hLeu-Y-C-Tbg-G-Lys(DOTA)-ThpA-D-V-Y-C-5FW-F-hydroxyVal-CONH2] (Ac-[hLeu]YC[Tle]GK(DOTA)[Ala(4-THP)]DVYC[Trp(5-F)]F[Val(3-OH)]-NH2; disulfide 3-11)
Calu-6 cell line [1]
  % cell associated fraction: B (25<%≤50)
Calu-6 cell line [2]
  % net internalization: A (%≤25)
Human 4lg B7-H3; [5]
  Kd: 1 to 10 nM

## CC(=O)N[C@@H](CCC(C)C)C(=O)N[C@@H](Cc1ccc(O)cc1)C(=O)N[C@H]1CSSC[C@@H](C(=O)N[C@@H](Cc2c[nH]c3ccc(F)cc23)C(=O)N[C@@H](Cc2ccccc2)C(=O)N[C@H](C(=O)N[C@H](CCCCNC(=O)[C@H](CCC(=O)O)NC(=O)CN2CCN(CC(=O)O)CCN(CC(=O)O)CCN(CC(=O)O)CC2)C(=O)O)C(C)(C)O)NC(=O)[C@H](Cc2ccc(O)cc2)NC(=O)[C@H](C(C)C)NC(=O)[C@H](CC(=O)O)NC(=O)[C@H](CC2CCOCC2)NC(=O)[C@H](CC2CCNCC2)NC(=O)CNC(=O)[C@H](C(C)(C)C)NC1=O [compound 428, Ac-hLeu-Y-C-Tbg-G-PipAla-ThpA-D-V-Y-C-5FW-F-hydroxyVal-dLys(Glu-DOTA)-COOH] (Ac-[hLeu]YC[Tle]G[Ala(piperidin-4-yl)][Ala(4-THP)]DVYC[Trp(5-F)]F[Val(3-OH)][dK]([Glu-DOTA])-OH; disulfide 3-11)
Calu-6 cell line [1]
  % cell associated fraction: B (25<%≤50)
Calu-6 cell line [2]
  % net internalization: A (%≤25)
Human 4lg B7-H3; [5]
  Kd: < 1 nM

## CC(=O)N[C@@H](CCC(C)C)C(=O)N[C@@H](Cc1ccc(O)cc1)C(=O)N[C@H]1CSSC[C@@H](C(=O)N[C@@H](Cc2c[nH]c3ccc(F)cc23)C(=O)N[C@@H](Cc2ccccc2)C(=O)N[C@H](C(N)=O)[C@@H](C)O)NC(=O)[C@H](Cc2ccc(O)cc2)NC(=O)[C@H](C(C)C)NC(=O)[C@H](CC(=O)O)NC(=O)[C@H](Cc2cccc(CNC(=O)CN3CCN(CC(=O)O)CCN(CC(=O)O)CCN(CC(=O)O)CC3)c2)NC(=O)[C@H](CCCCN)NC(=O)CNC(=O)[C@H](C(C)C)NC1=O [compound 182, Ac-hLeu-Y-C-V-G-K-MAF(DOTA)-D-V-Y-C-5FW-F-Thr-CONH2] (Ac-[hLeu]YCVGK[Phe(3-CH2NH2)](DOTA)DVYC[Trp(5-F)]FT-NH2; disulfide 3-11)
Calu-6 cell line [1]
  % cell associated fraction: C (%>50)
Calu-6 cell line [2]
  % net internalization: C (%>50)
Human 4lg B7-H3; [4]
  Kd: < 1 nM

## CC(=O)N[C@@H](CCC(C)C)C(=O)N[C@@H](Cc1ccc(O)cc1)C(=O)N[C@H]1CSSC[C@@H](C(=O)N[C@@H](Cc2c[nH]c3ccc(F)cc23)C(=O)N[C@@H](Cc2ccccc2)C(=O)N[C@H](C(=O)N[C@H](C)C(N)=O)C(C)(C)O)NC(=O)[C@H](Cc2ccc(O)cc2)NC(=O)[C@H](C(C)C)NC(=O)[C@H](CC(=O)O)NC(=O)[C@H](CC2CCOCC2)NC(=O)[C@H](CC2CCN(C(=O)CCOCCOCCOCCOCCNC(=O)CN3CCN(CC(=O)O)CCN(CC(=O)O)CCN(CC(=O)O)CC3)CC2)NC(=O)CNC(=O)[C@H](C(C)(C)C)NC1=O [compound 384, Ac-hLeu-Y-C-Tbg-G-Pip(PEG4-DOTA)Ala-ThpA-D-V-Y-C-5FW-F-hydroxyVal-dAla-CONH2] (Ac-[hLeu]YC[Tle]G[Ala(piperidin-4-yl)]([PEG4-DOTA])[Ala(4-THP)]DVYC[Trp(5-F)]F[Val(3-OH)][dA]-NH2; disulfide 3-11)
Calu-6 cell line [1]
  % cell associated fraction: B (25<%≤50)
Calu-6 cell line [2]
  % net internalization: A (%≤25)
Human 4lg B7-H3; [5]
  Kd: < 1 nM

## CC[C@H](C)[C@@H]1NC(=O)[C@@H](NC(=O)[C@H](Cc2ccc(O)cc2)NC(=O)[C@H](CCC(C)C)NC(C)=O)CSSC[C@@H](C(=O)N[C@@H](Cc2c[nH]c3ccc(F)cc23)C(=O)N[C@@H](Cc2ccccc2)C(=O)N[C@H](C(N)=O)C(C)(C)O)NC(=O)[C@H](Cc2ccc(O)cc2)NC(=O)[C@H](C(C)C)NC(=O)[C@H](CC(=O)O)NC(=O)[C@H](Cc2ccncc2)NC(=O)[C@H](CCCCNC(=O)CN2CCN(CC(=O)O)CCN(CC(=O)O)CCN(CC(=O)O)CC2)NC(=O)CNC1=O [compound 230, Ac-hLeu-Y-C-Ile-G-Lys(DOTA)-4PyA-D-V-Y-C-5FW-F-hydroxyVal-CONH2] (Ac-[hLeu]YCIGK(DOTA)[4Pal]DVYC[Trp(5-F)]F[Val(3-OH)]-NH2; disulfide 3-11)
Calu-6 cell line [1]
  % cell associated fraction: B (25<%≤50)
Calu-6 cell line [2]
  % net internalization: A (%≤25)
Human 4lg B7-H3; [4]
  Kd: < 1 nM

## CC(=O)N[C@@H](CCC(C)C)C(=O)N[C@@H](Cc1ccc(O)cc1)C(=O)N[C@H]1CSSC[C@@H](C(=O)N[C@@H](Cc2c[nH]c3ccc(F)cc23)C(=O)N[C@@H](Cc2ccccc2)C(=O)N[C@H](C(=O)N[C@H](CCCCNC(=O)CN2CCN(CC(=O)O)CCN(CC(=O)O)CCN(CC(=O)O)CC2)C(N)=O)[C@@H](C)O)NC(=O)[C@H](Cc2ccc(O)cc2)NC(=O)[C@H](C(C)C)NC(=O)[C@H](CC(=O)O)NC(=O)[C@H](Cc2ccc(O)cc2)NC(=O)[C@H](CCCCN)NC(=O)CN(C)C(=O)[C@H](C(C)C)NC1=O [compound 77, Ac-hLeu-Y-C-V-Sar-K-Y-D-V-Y-C-5FW-F-Thr-dLys(DOTA)-CONH2] (Ac-[hLeu]YCV[Sar]KYDVYC[Trp(5-F)]FT[dK](DOTA)-NH2; disulfide 3-11)
Calu-6 cell line [1]
  % cell associated fraction: C (%>50)
Calu-6 cell line [2]
  % net internalization: A (%≤25)
Human 4lg B7-H3; [3]
  Kd: 1 to 10 nM
